The record followed here is patent US20260125647A1, “AGE-MODULATING COMPOUNDS AND METHODS FOR MAKING AGE-MODULATED CELLS” (MEMORIAL SLOAN-KETTERING CANCER CENTER, priority 2023, published 2026).

SMILES strings stand for the structures.

The test system of assay [1] is HDF fibroblasts. As to the kind of experiment: Hallmarks of age by high content microscopy in fibroblasts. The assay is classed as cell-based, human. The settings on record: 24 h. The protocol:
Compounds for experimental validation of L1000-based score. All validation experiments were performed after 24 h of compound treatment. For rejuvenation experiments in fibroblasts Mocetinostat (10 μM; Selleck S1396), Resveratrol (0.37 μM; Selleck S1396) and Radicicol (1.1 μM; Tocris 1589), DMSO (1:1000) and EtOH (1:1000; vehicle control for Radicicol) were applied to old primary fibroblasts (Coriell GM4204). Age induction experiments in young fibroblasts (HDF-f; ScienCell #2300) were performed with 5-Iodotubercin (10 μM; Selleck S8314), Alvocidib (10 μM; Selleck S1230) and Mitoxantrone (1.1 μM; Selleck S2485) with DMSO (1:1000) used as a control. Compounds used for age induction experiments in PSC-derived neurons were: Fludarabine (10 μM; Selleck S1491) Vinorelbine (10 μM; sc-205885) and AGK-2 (0.04 μM; Selleck S7577) with DMSO (1:1000) used as a control.
Assaying Hallmarks of Age by high content microscopy. HDF fibroblasts were plated at a density of 4500/cm^2 and cultured for 48 h before drug treatment. Neurons were plated at a density of 100,000/cm^2 and cultured for 12 days before the application of candidate age inducers. After 24 h of treatment culture wells were washed 2× in PBS then fixed with 4% paraformaldehyde. For immunocytochemistry cells were permeabilized in PBS+0.3% Triton and blocked in 5% normal goat serum. All antibody primary incubations were performed overnight at 4 degrees and secondary antibodies at RT for 1h. Primary antibodies used in this study were: BAG3 (abcam; ab47124), CAV1 (Thermo; MA3-600), H3K9me3 (abcam; ab176916), LAP2 (BD Bioscience; 611000), p21 (CST; 2947), yH2AX (EMD Millipore; 05-636). Immunocytochemistry images were acquired using an Operetta (PerkinElmer, Waltham, MA) microscope and quantified using the harmony high content analysis software. For both fibroblasts and neurons 4 independent batches of cells were assayed in triplicate (n=12). Fluorescence intensity was normalized to DMSO, and ordinary one-way ANOVA used to compare test conditions to the DMSO control (Prism 9.5.1). […]

Assay [2] deals with fetal human dermal fibroblasts (HDF-f). As to the kind of experiment: RNA-seq RNAge validation of age inducers in fetal fibroblasts. The assay is classed as cell-based. The conditions noted are these: 24 h, relative to DMSO; for RNAge score (relative transcriptional age): Alvocidib 10 μM, 5-Iodotubercin 10 μM, Mitoxantrone 1.1 μM. The procedure:
Fibroblast maintenance and culture. Fibroblasts were maintained in DMEM-F12 containing GlutaMAX,15% heat inactivated FBS and 1× Pen/Strep and passaged using Trypsin. For validation of […] aging score by RNA-seq old (GM04204; Coriell) or young (HDF-f; […] Compounds for experimental validation of […]-based score. All validation experiments were performed after 24 h of compound treatment. For rejuvenation experiments in fibroblasts Mocetinostat (10 μM; Selleck […]), Resveratrol (0.37 μM; Selleck […]) and Radicicol (1.1 μM; Tocris 1589), DMSO (1:1000) and EtOH (1:1000; vehicle control for Radicicol) were applied to old primary fibroblasts (Coriell GM4204). Age induction experiments in young fibroblasts (HDF-f; ScienCell #2300) were performed with 5-Iodotubercin (10 μM; Selleck […]), Alvocidib (10 μM; Selleck […]) and Mitoxantrone (1.1 μM; Selleck […]) with DMSO (1:1000) used as a control. Compounds used for age induction experiments in PSC-derived neurons were: […] Selleck […]) with DMSO (1:1000) used as a control. RNA Extraction. Cell were harvested, lysed, and stored in Trizol (Life Technologies) until further processing. For primary frontal cortex or substantia nigra a total of 10 mg of brain tissue from was lysed in Trizol aided by a tissue dounce. For experimental validation […] compounds RNA was extracted by the core using […] Micro Kit (QIAGEN 1071023). In all other cases RNA was extracted using the Zymo Direct-zol RNA Microprep Kit according to the manufacturer's instructions. RNA-seq analysis. Reads were aligned to the hg19 Human transcripts using STAR (version 2.5.21b) using default parameters and resulting bam files were sorted and indexed using samtools. Gene counts were obtained using featureCounts (version 1.4.3) from sorted bam files using uniquely mapped reads. Genes with no expression counts in any sample were discarded. Differential gene expression analysis was performed using DESeq2 R package that normalize gene count data to transcription per million (TPM), and then detect differentially expressed genes (DEG) between Young and Old groups with ([…] score calculation. The aging score is applied on a gene expression test data where two conditions are compared for expression changes in the aging signature, group1 has n samples and group2 has m samples. For each gene in a tissue specific marker set Ĝk, we can calculate t-statistic between two groups based on Welch's two-sample t test as follow: where the normalizing factor Nk is the number of overlapping genes between the test dataset and Ĝk. The aging score, Aging scorek, represents the overall magnitude of expression difference between two sample groups based on the expression trends. This score is calculated using the tissue-specific aging marker set Mk. It indicates the aging difference between the two groups as well as distinguishes which group is older. To mitigate the influence of a small number of markers with large changes gene expression between group1 and group2 of the test data (i.e. large t-score values), we introduced the “Percentage score” as a measure of agreement between the expression trends of the aging markers and the given dataset. The calculation of the Percentage score involves the product of each gene between Tk and Mk: Ai=ti×Li, where i∈Ĝk. A positive Ai indicates a consistent expression change of gene i in both the aging signature and in the comparison between group1 and group2 in the test dataset. Conversely, a negative Ai indicates an opposite expression trend. Therefore, the “Percentage score” is defined as: […]

Assay [3] relates to PSC-derived neurons. The assay can be described thus: RNA-seq RNAge validation of age inducers in PSC-derived neurons. The assay is classed as cell-based, human. The conditions noted are these: 24 h, relative to DMSO, Vinorelbine 10 μM, AGK-2 0.04 μM. The protocol:
Generation of human cortical neurons. Cortical neurons were generated by directed differentiation of human embryonic stem cells (H9; WA-09) maintained in E8 on vitronectin coated plates. […] After 24 h the E8 medium was replaced with E6 containing SB431542 (10 μM), LDN193189 (100 nM) and XAV939 ([…]). After three days the XAV939 was removed from the differentiation media and cells were cultured for an additional seven days in E6 containing SB431542 (10 μM), LDN193189 (100 nM). The neuroepithelium was maintained for an additional 10 days in neurobasal supplemented with N2 and B27. Media was changed daily throughout the differentiation. At DIV 20 the cultures were dissociated using Accutase to generate a single cell suspension and plated out for subsequent experiments in Neurobasal medium supplemented with B27, L-glutamine, BDNF, CAMP, ascorbic acid and GDNF (neural maintenance media). DAPT was also added to the culture medium from DIV20 to DIV30. Compounds for experimental validation of […]-based score. […] Reads were aligned to the hg19 Human transcripts using STAR (version 2.5.21b) using default parameters and resulting bam files were sorted and indexed using samtools. Gene counts were obtained using featureCounts (version 1.4.3) from sorted bam files using uniquely mapped reads. […] This score is calculated using the tissue-specific aging marker set Mk. […]

In assay [4] the test system is old primary fibroblasts (Coriell GM04204). The assay can be described thus: RNA-seq RNAge validation of rejuvenating compounds in old primary fibroblasts. It is filed as cell-based, human. The conditions noted are these: 0.37 μM, 24 h. The protocol:
Fibroblast maintenance and culture. Fibroblasts were maintained in DMEM-F12 containing GlutaMAX,15% heat inactivated FBS and 1× Pen/Strep and passaged using Trypsin. For validation of […] aging score by RNA-seq old (GM04204; Coriell) or young (HDF-f; […] Compounds for experimental validation of […]-based score. All validation experiments were performed after 24 h of compound treatment. For rejuvenation experiments in fibroblasts Mocetinostat (10 μM; Selleck […]), Resveratrol (0.37 μM; Selleck […]) and Radicicol (1.1 μM; Tocris 1589), DMSO (1:1000) and EtOH (1:1000; vehicle control for Radicicol) were applied to old primary fibroblasts (Coriell GM4204). Age induction experiments in young fibroblasts (HDF-f; ScienCell #2300) were performed with 5-Iodotubercin (10 μM; Selleck […]), Alvocidib (10 μM; Selleck […]) and Mitoxantrone (1.1 μM; Selleck […]) with DMSO (1:1000) used as a control. Compounds used for age induction experiments in PSC-derived neurons were: […] Selleck […]) with DMSO (1:1000) used as a control. RNA Extraction. […] Reads were aligned to the hg19 Human transcripts using STAR (version 2.5.21b) using default parameters and resulting bam files were sorted and indexed using samtools. Gene counts were obtained using featureCounts (version 1.4.3) from sorted bam files using uniquely mapped reads. […] This score is calculated using the tissue-specific aging marker set Mk. […]

Consider `Nc1ncnc2c1c(I)cn2[C@@H]1O[C@H](CO)[C@@H](O)[C@H]1O` [5-iodotubercin], for which, in assay [1], the nuclear area result is given as “increase” and the nuclear roundness result is “loss”. For the same compound, in assay [1] (relative to DMSO), the BAG3 fluorescence intensity result is “decreased” and the LAP2 fluorescence intensity entry was “loss”. Also, in assay [2], the “pattern of induction of the RNAge subscores” value (“pattern” below) is “very similar pattern of induction” and the “RNAge score (relative transcriptional age)” value is reported as “increased”.

Take `N#C/C(=C\c1ccc(-c2cc(Cl)ccc2Cl)o1)C(=O)Nc1cccc2ncccc12` [AGK-2]: in assay [3], the “RNAge score / aging scores across the aging signatures” value is listed as “no obvious transcriptional effect or impact”.

For the compound `CN1CC[C@H](c2c(O)cc(O)c3c(=O)cc(-c4ccccc4Cl)oc23)[C@H](O)C1` [Alvocidib], in assay [1], the nuclear area entry is “increase” and the nuclear roundness entry was “loss”. In assay [1] (relative to DMSO), the BAG3 fluorescence intensity result was “decreased” and the LAP2 fluorescence intensity entry is listed as “loss”. In addition, in assay [2], the “pattern” value is “very similar pattern of induction” and the “RNAge score (relative transcriptional age)” value was “increased”.

On to `O=C1c2c(O)ccc(O)c2C(=O)c2c(NCCNCCO)ccc(NCCNCCO)c21` [Mitoxantrone], for which the nuclear roundness entry in assay [1] is “loss”. In assay [1] (relative to DMSO), the BAG3 fluorescence intensity result is reported as “decreased”, the H3K9me3 immunoreactivity entry is listed as “decreased”, the LAP2 fluorescence intensity result is listed as “loss” and the p21 immunoreactivity result was “increased”. In addition, the γH2AX immunoreactivity result in assay [1] (relative to DMSO) is “increased”. In addition, in assay [2], the “pattern” value was “only showed induced aging in the ‘Pan’ and ‘pF’ aging categories”; the “RNAge score (relative transcriptional age)” value is reported as “increased”.

For `Oc1ccc(C=Cc2cc(O)cc(O)c2)cc1` [Resveratrol], the “fibroblast aging score bubble size (percent of genes that change in the expected direction)” value in assay [4] is recorded as “very small bubble size”.

As to `CCC1=C[C@@H]2CN(C1)Cc1c([nH]c3ccccc13)[C@@](C(=O)OC)(c1cc3c(cc1OC)N(C)[C@H]1[C@@](O)(C(=O)OC)[C@H](OC(C)=O)[C@]4(CC)C=CCN5CC[C@]31[C@@H]54)C2` [Vinorelbine], in assay [3], the “RNAge score / aging scores across the aging signatures” value is given as “only a slight, albeit consistent, induction”.
